Our source for the IC50, CC50 and Activity values is ChEMBL document CHEMBL3779785, “1,3,4-Oxadiazole derivatives as potential antitumor agents: discovery, optimization and biological activity valuation” (Medchemcomm, 2016).

The subject of data set [1] is HepG2. Kind of data set: Antiproliferative activity against human HepG2 cells after 24 hrs by MTT assay. The settings on record: HepG2, 24 h.
Data set [2] has as its system HeLa. Kind of data set: Antiproliferative activity against human HeLa cells after 24 hrs by MTT assay.
Data set [3] can be described thus: Cytotoxicity against human macrophages assessed as cell growth inhibition. The format is cell-based, Macrophage.
Data set [4] concerns MCF7. Kind of data set: Antiproliferative activity against human MCF7 cells after 24 hrs by MTT assay. As to conditions: MCF7, 24 h.
Data set [5] has as its system HeLa. Kind of data set: Induction of apoptosis in human HeLa cells assessed as late apoptotic cells after 24 hrs by Annexin V FITC/propidium iodide staining based flow cytometric analysis. The class given is functional, cell-based. For orientation: Flow cytometry measures light scatter and fluorescence of single cells or particles in a stream.
Data set [6] has as its system HeLa. Kind of data set: Induction of apoptosis in human HeLa cells assessed as late apoptotic cells at 50 uM after 24 hrs by Annexin V FITC/propidium iodide staining based flow cytometric analysis (reference value: 10.17 %). The format is functional.
The test system of data set [7] is HeLa. Kind of data set: Induction of apoptosis in human HeLa cells assessed as early apoptotic cells at 2 uM after 24 hrs by Annexin V FITC/propidium iodide staining based flow cytometric analysis (reference value: 8.45 %). The format is functional.
Data set [8] relates to HeLa. Kind of data set: Induction of apoptosis in human HeLa cells assessed as early apoptotic cells at 10 uM after 24 hrs by Annexin V FITC/propidium iodide staining based flow cytometric analysis (reference value: 8.45 %). The format is functional.
Data set [9] deals with HeLa. Kind of data set: Induction of apoptosis in human HeLa cells assessed as late apoptotic cells at 10 uM after 24 hrs by Annexin V FITC/propidium iodide staining based flow cytometric analysis (reference value: 10.17 %). The class given is functional.
Data set [10] has as its system HeLa. Kind of data set: Induction of apoptosis in human HeLa cells assessed as early apoptotic cells at 50 uM after 24 hrs by Annexin V FITC/propidium iodide staining based flow cytometric analysis (reference value: 8.45 %). The format is functional.
In data set [11] the test system is HeLa. Kind of data set: Induction of apoptosis in human HeLa cells assessed as early apoptotic cells after 24 hrs by Annexin V FITC/propidium iodide staining based flow cytometric analysis. The class given is functional, cell-based.
Data set [12] deals with HeLa. Kind of data set: Induction of apoptosis in human HeLa cells assessed as late apoptotic cells at 2 uM after 24 hrs by Annexin V FITC/propidium iodide staining based flow cytometric analysis (reference value: 10.17 %). The class given is functional.

Regarding `Brc1ccc(-c2nnc(Cn3nnc4ccccc43)o2)cc1`, the IC50 came out at 438 µM in [1], 305 µM in data set [2] and 387 µM in [4]. Also, in data set [3], the CC50 was more than 100 µM.
Turning to `Fc1cccc(-c2nnc(Cn3nnc4ccccc43)o2)c1`, the results for the IC50 in [1], in data set [2] and in [4] were 451 µM, 332 µM and 398 µM, respectively. Further, in data set [3], the CC50 is more than 100 µM.
On to `COc1ccc(Cc2nnc(Cn3nnc4ccccc43)o2)cc1`, for which the IC50 amounted to 357 µM in data set [1], 150 µM in [2] and 251 µM in [4]. In addition, in data set [3], the CC50 is more than 100 µM.
On the same counts, the results for `Clc1cccc(-c2nnc(Cn3nnc4ccccc43)o2)c1` are 440 µM, 327 µM, 390 µM and more than 100 µM.
For the compound `Brc1cccc(-c2nnc(Cn3nnc4ccccc43)o2)c1`, the values for the IC50 in [1], in data set [2] and in [4] were 488 µM, 301 µM and 382 µM, respectively. The CC50 in data set [3] was more than 100 µM.
As to `Brc1cccc(Cc2nnc(Cn3nnc4ccccc43)o2)c1`, the IC50 came to 398 µM in [1], 182 µM in data set [2] and 269 µM in data set [4]. Besides, in data set [3], the CC50 is more than 100 µM.
Consider `c1ccc(Cc2nnc(Cn3nnc4ccccc43)o2)cc1`, for which the IC50 is 369 µM in data set [1], 167 µM in data set [2] and 258 µM in [4]. In addition, the CC50 in data set [3] is more than 100 µM.
`COc1ccc(-c2nnc(Cn3nnc4ccccc43)o2)cc1`: the IC50 in data set [1] was found to be 477 µM; in [2], 269 µM; in data set [4], 376 µM. In [3], the CC50 is more than 100 µM.
On the same counts, the results for `O=[N+]([O-])c1ccc(-c2nnc(Cn3nnc4ccccc43)o2)cc1` are 483 µM, 299 µM, 13 µM and more than 100 µM.
Take `Fc1cccc(Cc2nnc(Cn3nnc4ccccc43)o2)c1`: the figures for the IC50 in data set [1], in [2] and in data set [4] were 368 µM, 237 µM and 357 µM, respectively. For the same compound, the CC50 in data set [3] was more than 100 µM.
On the same counts, the results for `Brc1ccc(Cc2nnc(Cn3nnc4ccccc43)o2)cc1` are 357 µM, 198 µM, 277 µM and more than 100 µM.
Turning to `COc1ccccc1-c1nnc(Cn2nnc3ccccc32)o1`, the IC50 in data set [1] worked out at 452 µM; in data set [2] it was 216 µM; in data set [4], 331 µM. Besides, the CC50 in data set [3] was more than 100 µM.
As for `COc1cccc(Cc2nnc(Cn3nnc4ccccc43)o2)c1`, the IC50 in data set [1] was 350 µM; in [2], 123 µM; in [4] it was 241 µM. The CC50 in [3] is more than 100 µM.
For `COc1ccccc1Cc1nnc(Cn2nnc3ccccc32)o1`, the Activity entry in data set [5] was “Dose-dependent effect”; in [6] it was 35.86%; in data set [7], 9.86%; in [8], 23.57%; in [9], 20.79%; in [10], 36.18%. Also, the Activity result in data set [11] was “Dose-dependent effect”; in data set [12] it was 19.6%. Besides, the IC50 in [1] is 334 µM; in [2], 11 µM; in data set [4] it was 15 µM. For the same compound, the CC50 in data set [3] was more than 100 µM.
Turning to `Clc1cccc(Cc2nnc(Cn3nnc4ccccc43)o2)c1`, the IC50 is 401 µM in data set [1], 230 µM in data set [2] and 292 µM in data set [4]. The CC50 in data set [3] was more than 100 µM.
As to `O=[N+]([O-])c1ccc(Cc2nnc(Cn3nnc4ccccc43)o2)cc1`, the figures for the IC50 in data set [1], in data set [2] and in data set [4] were 367 µM, 157 µM and 253 µM, respectively. Further, the cytotoxic concentration (CC50) in data set [3] was more than 100 µM.
Take `COc1cccc(-c2nnc(Cn3nnc4ccccc43)o2)c1`: the IC50 in data set [1] came to 476 µM; in data set [2], 243 µM; in [4], 370 µM. Besides, the cytotoxic concentration (CC50) in data set [3] is more than 100 µM.

In general, IC50 refers to the concentration at which inhibition is half-maximal. Read a high IC50 as lower potency. For orientation: CC50 means the concentration that lowers cell viability or growth by half.
